Measurements from patent US7968526B2, “Antisense oligonucleotides directed to ribonucleotide reductase R2 and uses thereof in the treatment of cancer” (Lorus Therapeutics Inc., priority 2003, dated 2011).
“Also recorded” adds a separate entry of the source.

Experiments:
[1] = Pharmacokinetics in the rat (plasma, CE method); type: in vivo
Protocol: (§1) The toxicokinetics and tissue distribution of SEQ ID NO:1 (and related oligonucleotide metabolites obtained from exonuclease-mediated chain shortening) were determined in rats and monkeys. In addition to investigating the pharmacokinetics and tissue distribution of SEQ ID NO:1, the purpose of the studies was to correlate adverse effects in the animal studies to the concentrations of SEQ ID NO:1 (and metabolites) in tissue and blood. A capillary electrophoresis (CE) method was used to measure the concentrations of SEQ ID NO:1 (and metabolites) in plasma and tissues.
In a pharmacokinetic study, groups of male rats were administered one or two bolus i.v. injections (tail vein) of SEQ ID NO:1 at a dose of 50 mg/kg (295 mg/m^2) and intravenously infused (abdominal vena cava) for up to 48 h at a dose of 50 mg/kg/day (295 mg/m^2/day). Blood samples were collected into EDTA-containing tubes from subsets of animals in each group at various sampling times up to 56 h after initiation of infusion or bolus injection. Parent SEQ ID NO:1 concentrations were measured in plasma by a validated CE method.

[2] = Tissue distribution in the monkey (CE method); type: in vivo
Protocol: as §1
The concentrations of SEQ ID NO:1 (and related n+1, n−1 to n−15 oligonucleotide metabolites) in the following rat and monkey tissues were measured by a validated CE method (Southwest Bio-Labs, Inc.): kidney, liver, spleen, heart, lung, bone marrow (rat), lymph nodes (monkey) and brain tissues. The tissue samples were collected from the designated animals as described in the 21-day toxicity studies: rats, administered bolus intravenous injections of SEQ ID NO:1 every other day at 2, 10, or 50 mg/kg; and monkeys administered SEQ ID NO:1 by continuous intravenous infusion at 2, 10, or 50 mg/kg/day.

[3] = tested on: HT-29 human colon cancer cells; test: HT-29 colon tumour xenograft in nude mice, combination with CPT-11 (1.2); type: in vivo, human cells in mice; conditions: SEQ ID NO:1 10 mg/kg i.v. every other day, CPT-11 20 mg/kg i.p. days 7-12
Excerpt: All treatments were stopped at day 22. […] All treatments were stopped at day 32. […] All treatments were stopped at day 36.

[4] = 50 mg/kg/day continuous intravenous infusion
[5] = 2 mg/kg/day continuous i.v. infusion, Necropsy Day 22
[6] = 10 mg/kg/day continuous i.v. infusion, Necropsy Day 22
[7] = 50 mg/kg/day continuous i.v. infusion, Necropsy Day 22
[8] = 50 mg/kg/day continuous i.v. infusion, Necropsy Day 43

## 5′-GGCTAAATCGCTCCACCAAG-3′ (all phosphorothioate, sugars by position and methylation of C not given here) [SEQ ID NO: 1, fully phosphorothioated antisense oligonucleotide that hybridizes to the coding region of R2 mRNA]
[1]; [4]
  AUC(0-24): 208 µg·h/mL
  Cl (plasma clearance): 3.6 mL/min/kg
  Css (mean plasma steady state concentration): 9.62 µg/mL
  Time after infusion initiation at which steady state level was achieved: approximately 3 hr
[1]; 50 mg/kg/day i.v. bolus
  AUC(0-24): 369 µg·h/mL
  AUC(0-inf): 650 µg·h/mL
  AUC(0-t): 637 µg·h/mL
  Cl (plasma clearance): 2.57 mL/min/kg
  Kel: 0.5109 h⁻¹
  T1/2 (plasma half-life): 81.6 min
  Tmax: 4.98 min
[1]; 50 mg/kg/day i.v. bolus, after second bolus injection
  Cmax: 679 µg/mL
[2]
  Rank order of tissue concentrations: kidney>liver>bone marrow>spleen>heart>lung
[2]; [5]
  Mean Concentration SEQ ID NO: 1, Brain: BDL (below detectable limits (1 μg/g rat; 0.2 μg/g monkey))
  Mean Concentration SEQ ID NO: 1, Heart: BDL (below detectable limits (1 μg/g rat; 0.2 μg/g monkey))
  Mean Concentration SEQ ID NO: 1, Kidney: 176.2 µg/g
  Mean Concentration SEQ ID NO: 1, Liver: 137.8 µg/g
  Mean Concentration SEQ ID NO: 1, Lung: BDL (below detectable limits (1 μg/g rat; 0.2 μg/g monkey))
  Mean Concentration SEQ ID NO: 1, Lymph node: 2.2 µg/g
  Mean Concentration SEQ ID NO: 1, Spleen: 17.8 µg/g
  Mean Concentration total metabolites (n + 1 through n − 13), Brain: BDL (below detectable limits (1 μg/g rat; 0.2 μg/g monkey))
  Mean Concentration total metabolites (n + 1 through n − 13), Heart: BDL (below detectable limits (1 μg/g rat; 0.2 μg/g monkey))
  Mean Concentration total metabolites (n + 1 through n − 13), Kidney: 605.8 µg/g
  Mean Concentration total metabolites (n + 1 through n − 13), Liver: 425.7 µg/g
  Mean Concentration total metabolites (n + 1 through n − 13), Lung: BDL (below detectable limits (1 μg/g rat; 0.2 μg/g monkey))
  Mean Concentration total metabolites (n + 1 through n − 13), Lymph node: 21.0 µg/g
  Mean Concentration total metabolites (n + 1 through n − 13), Spleen: 71.4 µg/g
[2]; [6]
  Mean Concentration SEQ ID NO: 1, Brain: BDL (below detectable limits (1 μg/g rat; 0.2 μg/g monkey))
  Mean Concentration SEQ ID NO: 1, Heart: 1.9 µg/g
  Mean Concentration SEQ ID NO: 1, Kidney: 246.5 µg/g
  Mean Concentration SEQ ID NO: 1, Liver: 129.0 µg/g
  Mean Concentration SEQ ID NO: 1, Lung: 1.6 µg/g
  Mean Concentration SEQ ID NO: 1, Lymph node: 13.1 µg/g
  Mean Concentration SEQ ID NO: 1, Spleen: 82.1 µg/g
  Mean Concentration total metabolites (n + 1 through n − 13), Brain: BDL (below detectable limits (1 μg/g rat; 0.2 μg/g monkey))
  Mean Concentration total metabolites (n + 1 through n − 13), Heart: 4.6 µg/g
  Mean Concentration total metabolites (n + 1 through n − 13), Kidney: 886.1 µg/g
  Mean Concentration total metabolites (n + 1 through n − 13), Liver: 486.2 µg/g
  Mean Concentration total metabolites (n + 1 through n − 13), Lung: 4.2 µg/g
  Mean Concentration total metabolites (n + 1 through n − 13), Lymph node: 86.2 µg/g
  Mean Concentration total metabolites (n + 1 through n − 13), Spleen: 198.3 µg/g
[2]; [7]
  Mean Concentration SEQ ID NO: 1, Brain: BDL (below detectable limits (1 μg/g rat; 0.2 μg/g monkey))
  Mean Concentration SEQ ID NO: 1, Heart: 46.3 µg/g
  Mean Concentration SEQ ID NO: 1, Kidney: 1425.2 µg/g
  Mean Concentration SEQ ID NO: 1, Liver: 316.6 µg/g
  Mean Concentration SEQ ID NO: 1, Lung: 39.2 µg/g
  Mean Concentration SEQ ID NO: 1, Lymph node: 253.5 µg/g
  Mean Concentration SEQ ID NO: 1, Spleen: 260.6 µg/g
  Mean Concentration total metabolites (n + 1 through n − 13), Brain: BDL (below detectable limits (1 μg/g rat; 0.2 μg/g monkey))
  Mean Concentration total metabolites (n + 1 through n − 13), Heart: 113.8 µg/g
  Mean Concentration total metabolites (n + 1 through n − 13), Kidney: 3230.8 µg/g
  Mean Concentration total metabolites (n + 1 through n − 13), Liver: 806.6 µg/g
  Mean Concentration total metabolites (n + 1 through n − 13), Lung: 124.0 µg/g
  Mean Concentration total metabolites (n + 1 through n − 13), Lymph node: 801.2 µg/g
  Mean Concentration total metabolites (n + 1 through n − 13), Spleen: 1097 µg/g
[2]; [8]
  Mean Concentration SEQ ID NO: 1, Brain: BDL (below detectable limits (1 μg/g rat; 0.2 μg/g monkey))
  Mean Concentration SEQ ID NO: 1, Heart: 0.5 µg/g
  Mean Concentration SEQ ID NO: 1, Kidney: 1.6 µg/g
  Mean Concentration SEQ ID NO: 1, Liver: 0.9 µg/g
  Mean Concentration SEQ ID NO: 1, Lung: BDL (below detectable limits (1 μg/g rat; 0.2 μg/g monkey))
  Mean Concentration SEQ ID NO: 1, Lymph node: 59.9 µg/g
  Mean Concentration SEQ ID NO: 1, Spleen: 57.2 µg/g
  Mean Concentration total metabolites (n + 1 through n − 13), Brain: BDL (below detectable limits (1 μg/g rat; 0.2 μg/g monkey))
  Mean Concentration total metabolites (n + 1 through n − 13), Heart: 3.5 µg/g
  Mean Concentration total metabolites (n + 1 through n − 13), Kidney: 10.5 µg/g
  Mean Concentration total metabolites (n + 1 through n − 13), Liver: 2.3 µg/g
  Mean Concentration total metabolites (n + 1 through n − 13), Lung: BDL (below detectable limits (1 μg/g rat; 0.2 μg/g monkey))
  Mean Concentration total metabolites (n + 1 through n − 13), Lymph node: 371.3 µg/g
  Mean Concentration total metabolites (n + 1 through n − 13), Spleen: 367.8 µg/g
[2]; lower limit for detection 0.2 μg/g
  Concentrations in the brain: below the limits of detection
[3]; HT-29 (colon), CD-1
  Tumour weight as % of saline control: 19%
[3]; HT-29, CD-1 nude mice
  Antitumour effect (tumour weight, FIG. 2): significant delay of tumour growth compared to saline control; also recorded: superior to the inhibitory effects observed with CPT-11 alone
